# Measurements as given in a melting point compilation (Tetko et al.; mined from patent text by program, amines drawn as free bases though some values may be those of a salt).
row,SMILES,melting point
1,CCC(CC)c1ccc(Cl)c2nc3n(c12)CCCCN3c1ccc(C)cc1Br,152 to 155 °C
2,CC(Oc1ccc(Cl)cc1Cl)c1nnc(N=C=O)s1 (stereo not drawn),176 to 179 °C
3,CCCc1ccc(-c2ccn([C@H](CC(=O)OCc3ccccc3)C(=O)N[C@H](C(=O)NC)C(C)(C)C)c2)cc1,63 to 65 °C
4,O=C(O)c1cccc(-c2ccnc3cc(Cc4cccc(C(F)(F)F)c4)nn23)c1,111 to 145 °C
5,Cn1ncc(C(=O)N2CCC2)c1C(=O)Nc1ccn2nc(-c3cccc(F)c3)nc2c1,232 to 236 °C
6,COc1ccc(C(=O)Cc2ncccc2C(=O)O)cc1,158 to 163 °C
7,N#Cc1ccc(-c2cn(-c3ccc(I)cc3)c(S)n2)cc1,285 to 290 °C
8,COc1ccncc1-c1nc2c(N[C@H]3[C@@H](C(N)=O)[C@@H]4C=C[C@H]3C4)c(Br)cnc2[nH]1,160 °C
9,Brc1ccn2nc(Br)nc2c1,183 to 184 °C
10,CCSc1ccc(-c2coc3ccc(-c4nnc(C)o4)nc23)cc1,174 to 175 °C
11,CCN1c2ncc(CCc3ccccc3)cc2C(=O)Nc2c(C)ccnc21,174 to 175 °C
12,CCOC(=O)C1=C(C)NC(C)=C(C(=O)OCCN2C(=O)c3ccccc3C2=O)C1c1cccc([N+](=O)[O-])c1 (stereo not drawn),194 to 195 °C
13,COC(=O)C1=CC=C(CC2=CCc3ccc(NC(=O)C(F)(F)F)cc32)C(OC)(OC)C1,198 to 200 °C
14,CCCCOCCOc1ccc(-c2ccc(-n3cccn3)c(C=C(C)C(=O)O)c2)cc1,132 to 134 °C
15,Cc1c(NC(=O)c2ccc(-c3ccc(F)cc3)c(F)c2)ccc2cc(CN3CCCCC3)cnc12,161 to 162 °C
16,CC(C)(CO)c1ccc(C(=O)O)cc1,154 to 156 °C
17,CC(NC(=O)OC(C)(C)C)C(=O)NC(C)C(=O)Nc1ccc2c(Cl)c(OCCBr)oc(=O)c2c1 (stereo not drawn),147 to 151 °C
18,O=C(c1ccccc1)c1ccc(SC(Cl)(Cl)Cl)cc1,62 to 63 °C
19,O=C(O)c1c(Cl)ccc([N+](=O)[O-])c1Nc1ccc(OCc2ccccc2)cc1,172 to 174 °C
20,CS(=O)(=O)N(c1cc2c(cc1Oc1ccccc1)C(C#N)CC2)S(C)(=O)=O (stereo not drawn),200 °C
21,CCN(CC)c1ccc(C2(c3c(C)n(CCOc4ccccc4)c4ccccc34)OC(=O)c3ccccc32)c(C)c1 (stereo not drawn),182 to 183 °C
22,CC(C)(N)Cc1ccc(NS(=O)(=O)c2ccccc2)cc1,180 to 181 °C
23,COc1cc([N+](=O)[O-])ccc1NC(=O)OCc1ccccc1,130 to 131 °C
24,CC(=O)NC[C@H]1CN(c2cc(F)c(N3CCC(n4cccc4)CC3)c(F)c2)C(=O)O1,186 to 188 °C
25,CC(Cn1ccc(-c2ccccc2Cl)n1)C(=O)N(C)C (stereo not drawn),87 to 88 °C

row,SMILES,melting point
1,CC(C)n1cc(-c2ccc(Oc3ccccc3)c(CO)c2)c2c(N)ncnc21,92 to 94 °C
2,O=C(NCCO)c1ccc(-c2ccccn2)cc1,86 to 88 °C
3,CC1CC(C)OP(=O)(Cc2ccc([N+](=O)[O-])cc2)O1 (stereo not drawn),152 to 153 °C
4,CCCCCC(CC(=O)Nc1cc(C(N)=O)ccc1C(C)(C)C)c1cc(Br)c(OC)cc1OC (stereo not drawn),102 to 104 °C
5,O=c1[nH]sc2cc(Cl)ccc12,271 to 272 °C
6,Cc1cc(OCc2c(-c3c(Cl)cccc3Cl)noc2C(C)C)cnc1NC(=O)c1ccc(C(=O)O)cc1,218 °C
7,CCC1CCc2[nH]cc3c(=O)n(-c4ccc(Cl)cc4)nc-3c2C1 (stereo not drawn),318 to 320 °C
8,CC(=NOCCO)c1ccc(-c2ccc(F)cc2)cc1,133 to 134 °C
9,O=C(O)c1cc(F)c(N2CCNCC2)nc1Nc1ccc(F)cc1F,279 to 281 °C
10,CCOC(=O)C=Cc1ccc(O)cc1,70 to 71 °C
11,CC(C)Cn1cnc2c(N)nc3ccc(CCCN4CCCC4=O)cc3c21,174 to 175 °C
12,COC(=O)c1cccc(NC(=O)c2ccc(OC)c(N)c2)c1,160 to 162 °C
13,COC(=O)CCC(=O)c1ccc(OC(=S)N(C)C)cc1,62 to 64 °C
14,CCn1c(=O)c(NC(=O)Nc2ccc(F)cc2F)c(-c2ccccc2Cl)c2cc(C)cc(C)c21,186 to 188 °C
15,CC(=O)C(=O)NC(=O)[C@@H](N)Cc1ccccc1,138 to 140 °C
16,CCc1cn(C2OC(CNC(=O)C(C)Oc3cc(OC)c(Cl)cc3Cl)C(O)C2F)c(=O)[nH]c1=O (stereo not drawn),151 to 156 °C
17,Nc1nc(N)nc(C2CC3CC2CC3c2nc(N)nc(N)n2)n1 (stereo not drawn),317 to 324 °C
18,CC(=O)NCCn1c(C)ccc1C,106 to 107 °C
19,CCOC(=O)CN1c2ccccc2N(C)C(=O)c2cccnc21,99 to 100 °C
20,O=C(c1ccccc1)c1cc(Cl)ccc1C=CCN1C(=O)c2ccccc2C1=O,70 to 72 °C
21,COc1cc2c(cc1OC)N(Cc1ccccc1)C(=O)CN=C2c1cccc(C(F)(F)F)c1,175 to 178 °C
22,Cn1ncc2[nH]c3cccc(-c4cccc(O)c4)c3c(=O)c21,> 300 °C
23,COC(=O)c1cc(=O)c2cc(OC)cc([N+](=O)[O-])c2o1,192 to 193 °C
24,CCCC1=NN(c2cccnc2)C(=O)C1=CNc1ccccc1CC,144 °C
25,O=c1cc2c(nn1-c1ccc(Cl)cc1)-c1cc(Br)sc1SCC2,148 to 151 °C

row,SMILES,melting point
1,COc1cccc([C@H]2SC[C@@H](C(=O)OC(C)(C)C)N2C(=O)CNC(=O)Nc2cccc(C(=O)O)c2)c1,125 °C
2,CSC[C@H](C)NC(=O)c1c(I)cccc1C(=O)Nc1ccc(Cc2cc(C(F)(F)F)cc(C(F)(F)F)c2)cc1C,85 to 94 °C
3,COC(=O)c1cccc(I)c1C(=O)NC(C)(C)CS(C)=O (stereo not drawn),151 to 152 °C
4,CCN1C(=O)C(C)(C)c2cc(-c3nc4ccccc4[nH]3)ccc21,263 to 265 °C
5,COC(=O)c1ccccc1S(=O)(=O)N1CCC2(C=Cc3ccccc32)CC1,150 to 152 °C
6,CN(c1cc(=S)ss1)C1CCCCC1,107 °C
7,O=C(Nc1ccccc1)C1=CNCCC1,209 to 212 °C
8,O=C(O)CCc1cccc(Oc2cccc(-c3nnc(Nc4ccc(Cl)c(Cl)c4)s3)c2)c1,194 to 196 °C
9,O=C(O)c1ccccc1Oc1cc(Cl)c(Cl)cc1NS(=O)(=O)c1cc(C(F)(F)F)cc(C(F)(F)F)c1,139 to 140 °C
10,CCS(=O)(=O)c1cn(C)c2ccccc2c1=O,164 to 166 °C
11,COc1cc2c(cc1OC)CCC(C(=N)NO)=C2,202 to 205 °C
12,CS(=O)(=O)Nc1cc2occ(Br)c(=O)c2cc1Oc1ccccc1,215 to 216 °C
13,COC(=O)CCc1cc(-n2nc3ccc(Br)cc3n2)c(O)c(C(C)(C)C)c1,116 to 118 °C
14,Cc1cc(SC(C)C)c(NC(=O)CN2CCN(CCSc3nc4cccc([N+](=O)[O-])c4o3)CC2)c(SC(C)C)n1,57 to 59 °C
15,CC(=O)c1ccc2c(c1)oc(=O)n2N1CCC(c2noc3cc(F)ccc23)CC1,152 to 154 °C
16,CCc1oc2ccccc2c1C(=O)c1cc(C(C)C)c(OS(=O)(=O)c2ccc(C(=O)O)c(O)c2)c(C(C)C)c1,200 to 201 °C
17,COc1cccc2c(CC(=O)OCC(=O)CCc3ccccc3)coc12,68 to 69 °C
18,COC(=O)CC(C)C(=O)c1ccc(O)cc1 (stereo not drawn),89 to 91 °C
19,Cc1cccc2c1N(CC(=O)N1CC3CCC(CC3)C1)C(=O)C(NC(=O)Nc1cccc(C(=O)OC(C)(C)C)c1)N=C2c1ccccc1F (stereo not drawn),230 to 232 °C
20,CCC(C)OC(=O)C(Br)=CC1C(C(=O)OC(C#N)c2cccc(Oc3ccccc3)c2)C1(C)C (stereo not drawn),76 °C
21,Cc1cc(C)cc(Sc2c(C(C)C)c(=O)[nH]c(=O)n2CCC2CC=CC2)c1,128 to 129 °C
22,CCCCCCCCCCCCCCCCCCOc1cc(C(=O)OC)c([N+](=O)[O-])c(C(=O)OC)c1,65 to 68 °C
23,CC(C)(C)NS(=O)(=O)c1ccccc1-c1ccccn1,147 to 150 °C
24,Cc1cccc(-n2c(-c3sc(Nc4ccc(Cl)cc4)nc3-c3ccccc3)nc3ccccc3c2=O)c1,233 to 235 °C
25,Cc1ccc2c(c1)[C@H]1Cc3ccccc3[C@H]1N2 (relative stereo),110 °C

row,SMILES,melting point
1,O=C(O)c1ccc(Cl)c2c1[nH]c1ccccc12,280 °C
2,Cc1cccc2c1S(=O)(=O)N=C2C1=C(O)C(C(C)(C)C)N(Cc2ccc(F)cc2)C1=O (stereo not drawn),> 250 °C
3,Cc1cc(C)n(-c2ccc(C#N)nn2)n1,187 to 189 °C
4,COc1ccc2c(c1)C(=O)N(CCCNCCCN1C(=O)c3cc(OC)ccc3C(C)(C)C1=O)C(=O)C2(C)C,151 to 152 °C
5,CCOC(=O)C1=C(COCCNC2=NC(=O)CS2)NC(C)=C(C(=O)OC)C1c1cccc(Cl)c1Cl (stereo not drawn),204 to 205 °C
6,NC(=O)c1nc(-c2cccc(O)c2)nc2c1[nH]c(=O)n2Cc1ccccc1,362 to 366 °C
7,NCc1ccc(-n2c(-c3cccnc3N)nc3ccc(-c4cn[nH]c4)nc32)cc1,264 to 269 °C
8,CCN(CC)c1ccc(S(=O)(=O)NCCCCC(=O)O)cc1,106 to 108 °C
9,CCCCCCC/C=C/C(=O)NCC(C)C,42 to 45 °C
10,COc1ncc(NC(N)=S)c(OC)n1,175 °C
11,NC(=O)C1=NN(c2cccc(COCC(F)(F)C(F)(F)F)c2)C(c2ccccc2F)N1 (stereo not drawn),151 to 153 °C
12,CNCC1Cc2cc(C(F)(F)F)cc(-c3cccc(F)c3F)c2O1 (stereo not drawn),123 to 125 °C
13,CNC(=C[N+](=O)[O-])NCCOc1cccc(CCCN(C)C)c1,82 to 83.5 °C
14,OCC1CC(F)C(n2cnc3c(Cl)ncnc32)O1 (stereo not drawn),157 to 158 °C
15,CCN(CC)Cc1cnc2cc(NC(=O)c3ccc(-c4ccc(F)cc4)cc3)c(C)cc2c1,145 to 148 °C
16,Cc1cccc2c(=O)cc(O)c(=O)[nH]c12,184 to 186 °C
17,Cc1cc2ncc(C#N)c(Cl)c2s1,163 to 164 °C
18,N#CCc1nnc(N)s1,163 to 164 °C
19,O=C(Nc1ccc2cc(CN3CCCC3)ccc2c1)c1ccc(-c2ccccc2)nc1,212 to 214 °C
20,CCN1NN(N)N=C1C,45 to 50 °C
21,CC(C)C=NNC1=NS(=O)(=O)c2ccccc21,225 °C
22,COc1ccc(C=CC(=O)CC(=O)C=Cc2ccc(OC)c(O)c2)cc1O,190 to 192 °C
23,Clc1cccc(NC2=Nc3ccc(Cl)cc3CS2)c1,174 to 175 °C
